The assay has as its system MV-4-11 cells. Description: Gene expression microarray analysis (Affymetrix PrimeView) and GSEA. Format: cell-based, human. The arrangement: RFU PODN (11730768_x_at) / Fold change /veh PODN (11730768_x_at) / RFU LINC00158 (11744669_a_at) / Fold change /veh LINC00158 (11744669_a_at) / RFU DUSP10 (11751237_a_at) / Fold change /veh DUSP10 (11751237_a_at) / RFU ID3 (11757404_x_at) / Fold change /veh ID3 (11757404_x_at) / RFU PLEKHG5 (11737974_s_at) / Fold change /veh PLEKHG5 (11737974_s_at) / RFU LRRC4B (11730491_at) / Fold change /veh LRRC4B (11730491_at) / RFU GIMAP4 (11747438_a_at) / Fold change /veh GIMAP4 (11747438_a_at) / RFU KRT8 (11758183_x_at) / Fold change /veh KRT8 (11758183_x_at) / RFU CNN1 (11734310_a_at) / Fold change /veh CNN1 (11734310_a_at) / RFU VPS37D (11726825_at) / Fold change /veh VPS37D (11726825_at) / RFU C10orf10 (11716522_x_at) / Fold change /veh C10orf10 (11716522_x_at) / RFU KIR2DL2 /// KIR2DL4 /// KIR2DL5A /// KIR2DL5B /// KIR2DS1 /// KIR2DS2 /// KIR2DS3 /// KIR2DS4 /// KIR3DL3 /// KIR3DL3 /// KIR3DS1 (11738374_at) / Fold change /veh KIR2DL2 /// KIR2DL4 /// KIR2DL5A /// KIR2DL5B /// KIR2DS1 /// KIR2DS2 /// KIR2DS3 /// KIR2DS4 /// KIR3DL3 /// KIR3DL3 /// KIR3DS1 (11738374_at) / RFU C1QL1 (11718748_at) / Fold change /veh C1QL1 (11718748_at) / RFU TMPRSS4 (11747572_a_at) / Fold change /veh TMPRSS4 (11747572_a_at) / RFU HAMP (11756126_x_at) / Fold change /veh HAMP (11756126_x_at) / RFU RNFT2 (11725882_a_at) / Fold change /veh RNFT2 (11725882_a_at) / RFU NR4A2 (11747474_a_at) / Fold change /veh NR4A2 (11747474_a_at) / RFU ABCC12 (11746883_a_at) / Fold change /veh ABCC12 (11746883_a_at) / RFU TMEM136 (11760407_x_at) / Fold change /veh TMEM136 (11760407_x_at) / RFU CLDN22 /// WWC2 (11732394_at) / Fold change /veh CLDN22 /// WWC2 (11732394_at) / RFU HLA-DPB1 (11760878_x_at) / Fold change /veh HLA-DPB1 (11760878_x_at) / RFU SPINT1 (11716480_a_at) / Fold change /veh SPINT1 (11716480_a_at) / RFU GAP43 (11754022_s_at) / Fold change /veh GAP43 (11754022_s_at) / RFU A4GNT (11735810_at) / Fold change /veh A4GNT (11735810_at) / RFU PRB3 (11715151_x_at) / Fold change /veh PRB3 (11715151_x_at) / RFU TUBB4B (11761932_at) / Fold change /veh TUBB4B (11761932_at) / RFU CAPN14 (11732068_a_at) / Fold change /veh CAPN14 (11732068_a_at) / RFU TMCC2 (11721928_a_at) / Fold change /veh TMCC2 (11721928_a_at) / RFU IRGQ (11745062_a_at) / Fold change /veh IRGQ (11745062_a_at) / RFU FAM174B (11720279_a_at) / Fold change /veh FAM174B (11720279_a_at) / RFU TMPRSS4 (11748680_a_at) / Fold change /veh TMPRSS4 (11748680_a_at) / RFU FAM212B (11763350_a_at) / Fold change /veh FAM212B (11763350_a_at) / RFU PLEKHG5 (11743358_a_at) / Fold change /veh PLEKHG5 (11743358_a_at) / RFU ZSCAN30 (11745921_a_at) / Fold change /veh ZSCAN30 (11745921_a_at) / RFU CMKLR1 (11741424_a_at) / Fold change /veh CMKLR1 (11741424_a_at) / RFU LOC101060620 /// MAPK8IP1 (11723275_at) / Fold change /veh LOC101060620 /// MAPK8IP1 (11723275_at) / RFU SPTSSB (11747773_x_at) / Fold change /veh SPTSSB (11747773_x_at) / RFU PRSS12 (11739890_at) / Fold change /veh PRSS12 (11739890_at) / RFU BIN1 (11741810_x_at) / Fold change /veh BIN1 (11741810_x_at) / RFU WNT11 (11732464_a_at) / Fold change /veh WNT11 (11732464_a_at) / RFU C10orf10 (11716521_a_at) / Fold change /veh C10orf10 (11716521_a_at) / RFU C5orf56 (11738089_at) / Fold change /veh C5orf56 (11738089_at) / RFU CYB561 (11721691_x_at) / Fold change /veh CYB561 (11721691_x_at) / RFU ANKRD19P (11752326_a_at) / Fold change /veh ANKRD19P (11752326_a_at) / RFU OR2T12 /// OR2T33 /// OR2T8 (11738714_s_at) / Fold change /veh OR2T12 /// OR2T33 /// OR2T8 (11738714_s_at) / RFU VCAN (11748164_a_at) / Fold change /veh VCAN (11748164_a_at) / RFU JSRP1 (11732532_at) / Fold change /veh JSRP1 (11732532_at) / RFU KRTAP10-11 (11738290_x_at) / Fold change /veh KRTAP10-11 (11738290_x_at) / RFU MYO3A (11730013_a_at) / Fold change /veh MYO3A (11730013_a_at) / RFU EBF3 (11725865_a_at) / Fold change /veh EBF3 (11725865_a_at) / RFU CAMK2N1 (11719241_x_at) / Fold change /veh CAMK2N1 (11719241_x_at) / RFU C5orf56 (11738088_a_at) / Fold change /veh C5orf56 (11738088_a_at) / RFU OLFML3 (11715873_a_at) / Fold change /veh OLFML3 (11715873_a_at) / RFU LOC100653217 /// NTM (11731650_a_at) / Fold change /veh LOC100653217 /// NTM (11731650_a_at) / RFU MAPK11 (11762145_a_at) / Fold change /veh MAPK11 (11762145_a_at) / RFU FIZ1 (11724087_x_at) / Fold change /veh FIZ1 (11724087_x_at) / RFU OASL (11726364_x_at) / Fold change /veh OASL (11726364_x_at) / RFU SOX15 (11748057_x_at) / Fold change /veh SOX15 (11748057_x_at) / RFU CD79A (11719716_a_at) / Fold change /veh CD79A (11719716_a_at) / RFU HIST1H1D (11736915_at) / Fold change /veh HIST1H1D (11736915_at) / RFU CASKIN2 (11723855_a_at) / Fold change /veh CASKIN2 (11723855_a_at) / RFU LOC730098 (11760151_x_at) / Fold change /veh LOC730098 (11760151_x_at) / RFU OR4N2 (11742367_at) / Fold change /veh OR4N2 (11742367_at) / RFU PRRT2 (11749266_a_at) / Fold change /veh PRRT2 (11749266_a_at) / RFU SNX32 (11753110_a_at) / Fold change /veh SNX32 (11753110_a_at) / RFU CDHR5 (11726645_a_at) / Fold change /veh CDHR5 (11726645_a_at) / RFU RCAN1 (11760418_a_at) / Fold change /veh RCAN1 (11760418_a_at) / RFU FAM167A (11723789_a_at) / Fold change /veh FAM167A (11723789_a_at) / RFU FAM26E (11764081_at) / Fold change /veh FAM26E (11764081_at) / RFU ISYNA1 (11749810_s_at) / Fold change /veh ISYNA1 (11749810_s_at) / RFU ACY1 (11761880_at) / Fold change /veh ACY1 (11761880_at) / RFU 11764098_at / Fold change /veh 11764098_at / RFU SAMD14 (11745864_x_at) / Fold change /veh SAMD14 (11745864_x_at) / RFU NPB (11741838_a_at) / Fold change /veh NPB (11741838_a_at) / RFU TMPRSS6 (11731388_a_at) / Fold change /veh TMPRSS6 (11731388_a_at) / RFU KRTAP10-2 (11738614_at) / Fold change /veh KRTAP10-2 (11738614_at) / RFU ARHGAP8 /// PRR5-ARHGAP8 (11727945_x_at) / Fold change /veh ARHGAP8 /// PRR5-ARHGAP8 (11727945_x_at) / RFU KRTAP5-7 /// NADSYN1 (11734609_at) / Fold change /veh KRTAP5-7 /// NADSYN1 (11734609_at) / RFU RASL12 (11751679_a_at) / Fold change /veh RASL12 (11751679_a_at) / RFU CDKN2B (11736163_a_at) / Fold change /veh CDKN2B (11736163_a_at) / RFU PRF1 (11729649_at) / Fold change /veh PRF1 (11729649_at) / RFU, ZNF638 /// ZNF638-IT1 / Fold change vs veh, ZNF638 /// ZNF638-IT1 / RFU, PANK3 / Fold change vs veh, PANK3 / RFU, SH3YL1 / Fold change vs veh, SH3YL1 / RFU, ZEB2 / Fold change vs veh, ZEB2 / RFU, NRIP1 / Fold change vs veh, NRIP1 / RFU, PTTG1IP / Fold change vs veh, PTTG1IP / RFU, CAPN2 / Fold change vs veh, CAPN2 / RFU, MED14 / Fold change vs veh, MED14 / RFU, SNORA58 / Fold change vs veh, SNORA58 / RFU, C1orf63 / Fold change vs veh, C1orf63 / RFU, LRRFIP1 / Fold change vs veh, LRRFIP1 / RFU, NDUFAF7 / Fold change vs veh, NDUFAF7 / RFU, SLC12A2 / Fold change vs veh, SLC12A2 / RFU, IBTK / Fold change vs veh, IBTK / RFU, ESF1 / Fold change vs veh, ESF1 / Fold change vs veh, TMEM50B / RFU, TAOK1 / Fold change vs veh, TAOK1 / RFU, ACBD3 / Fold change vs veh, ACBD3 / RFU, TMA16 / Fold change vs veh, TMA16 / RFU, RWDD3 / Fold change vs veh, RWDD3 / RFU, BCAT1 / Fold change vs veh, BCAT1 / RFU, EDEM3 / Fold change vs veh, EDEM3 / RFU, TMEM33 / Fold change vs veh, TMEM33 / RFU, WDR75 / Fold change vs veh, WDR75 / RFU, AHCTF1 / Fold change vs veh, AHCTF1 / RFU, TFRC / Fold change vs veh, TFRC / RFU, ZDHHC17 / Fold change vs veh, ZDHHC17 / RFU, NOM1 / Fold change vs veh, NOM1 / RFU, ARL8B / Fold change vs veh, ARL8B / RFU, ZBTB11 / Fold change vs veh, ZBTB11 / RFU, TAMM41 / Fold change vs veh, TAMM41 / RFU, KIAA1704 /// LOC100996395 / Fold change vs veh, KIAA1704 /// LOC100996395 / RFU, ING1 / Fold change vs veh, ING1 / RFU, TRMT61B / Fold change vs veh, TRMT61B / RFU, FUBP3 / Fold change vs veh, FUBP3 / RFU, TP53 / Fold change vs veh, TP53 / RFU, TNKS2 / Fold change vs veh, TNKS2 / RFU, ZFP14 / Fold change vs veh, ZFP14 / RFU, ACTR2 / Fold change vs veh, ACTR2 / RFU, PPP3R1 / Fold change vs veh, PPP3R1 / RFU, PIK3R1 / Fold change vs veh, PIK3R1 / RFU, HNRNPA1 / Fold change vs veh, HNRNPA1 / RFU, RNF170 / Fold change vs veh, RNF170 / RFU, ZNF28 / Fold change vs veh, ZNF28 / RFU, RNGTT / Fold change vs veh, RNGTT / RFU, OGT / Fold change vs veh, OGT / RFU, BRD1 / Fold change vs veh, BRD1 / RFU, MARS / Fold change vs veh, MARS / RFU, ZNF655 / Fold change vs veh, ZNF655 / RFU, FAHD1 / Fold change vs veh, FAHD1 / RFU, BDP1 / Fold change vs veh, BDP1 / RFU, LRRCC1 / Fold change vs veh, LRRCC1 / RFU, ARID1A / Fold change vs veh, ARID1A / RFU, ZNF146 / Fold change vs veh, ZNF146 / RFU, ZNF330 / Fold change vs veh, ZNF330 / RFU, GPN3 / Fold change vs veh, GPN3 / RFU, C9orf123 / Fold change vs veh, C9orf123 / RFU, N4BP2L2 / Fold change vs veh, N4BP2L2 / RFU, ARFIP1 / Fold change vs veh, ARFIP1 / RFU, FAM179B / Fold change vs veh, FAM179B / RFU, BCL10 / Fold change vs veh, BCL10 / RFU, UHRF1BP1L / Fold change vs veh, UHRF1BP1L / RFU, BET1 / Fold change vs veh, BET1 / RFU, CNOT2 / Fold change vs veh, CNOT2 / RFU, ZNF268 / Fold change vs veh, ZNF268 / Fold change vs veh, ZNF507 / RFU, DGCR2 / Fold change vs veh, DGCR2 / RFU, WDSUB1 / Fold change vs veh, WDSUB1 / Fold change vs veh, HSP90B1 /// MIR3652 / RFU, ADSS / Fold change vs veh, ADSS / RFU, GK / Fold change vs veh, GK / RFU, ZNF148 / Fold change vs veh, ZNF148 / RFU, TAF9 / Fold change vs veh, TAF9 / RFU, SLC1A5 / Fold change vs veh, SLC1A5 / RFU, SLMO2 / Fold change vs veh, SLMO2 / RFU, ABCC4 / Fold change vs veh, ABCC4 / RFU, LOC101060439 /// RAP1B / Fold change vs veh, LOC101060439 /// RAP1B / RFU, RFX7 / Fold change vs veh, RFX7 / RFU, GTPBP10 / Fold change vs veh, GTPBP10 / RFU, CNEP1R1 / Fold change vs veh, CNEP1R1 / RFU, BIVM-ERCC5 /// ERCC5 / Fold change vs veh, BIVM-ERCC5 /// ERCC5 / RFU, ILF3 / Fold change vs veh, ILF3 / RFU 11762660_at / Fold change /veh 11762660_at / RFU VCAN (11757783_s_at) / Fold change /veh VCAN (11757783_s_at) / RFU DDX43 (11728927_at) / Fold change /veh DDX43 (11728927_at) / RFU KRT8 (11758188_x_at) / Fold change /veh KRT8 (11758188_x_at) / RFU NKD1 (11759106_at) / Fold change /veh NKD1 (11759106_at) / RFU SRD5A1 (11742802_a_at) / Fold change /veh SRD5A1 (11742802_a_at) / RFU TPSAB1 /// TPSB2 (11721975_s_at) / Fold change /veh TPSAB1 /// TPSB2 (11721975_s_at) / RFU GSTM3 (11746129_a_at) / Fold change /veh GSTM3 (11746129_a_at) / RFU IL23R (11737362_x_at) / Fold change /veh IL23R (11737362_x_at) / RFU TMEM51 (11727254_a_at) / Fold change /veh TMEM51 (11727254_a_at) / RFU PIWIL2 (11732686_x_at) / Fold change /veh PIWIL2 (11732686_x_at) / RFU ORM1 (11744905_x_at) / Fold change /veh ORM1 (11744905_x_at) / RFU CCDC152 (11743942_at) / Fold change /veh CCDC152 (11743942_at) / RFU ECM1 (11717891_a_at) / Fold change /veh ECM1 (11717891_a_at) / RFU IL23R (11748794_a_at) / Fold change /veh IL23R (11748794_a_at) / RFU TNFAIP8L3 (11732012_x_at) / Fold change /veh TNFAIP8L3 (11732012_x_at) / RFU MBOAT4 (11741988_at) / Fold change /veh MBOAT4 (11741988_at) / RFU 11764193_at / Fold change /veh 11764193_at / RFU TMEM53 (11763286_at) / Fold change /veh TMEM53 (11763286_at) / RFU MAGEB2 (11727129_at) / Fold change /veh MAGEB2 (11727129_at) / RFU TMEM200A (11744735_a_at) / Fold change /veh TMEM200A (11744735_a_at) / RFU CCDC152 (11751479_a_at) / Fold change /veh CCDC152 (11751479_a_at) / RFU FAM211A (11726209_a_at) / Fold change /veh FAM211A (11726209_a_at) / RFU RGS16 (11746705_a_at) / Fold change /veh RGS16 (11746705_a_at) / RFU VCAN (11755009_s_at) / Fold change /veh VCAN (11755009_s_at) / RFU RHOB (11743442_s_at) / Fold change /veh RHOB (11743442_s_at) / RFU RGS16 (11720943_a_at) / Fold change /veh RGS16 (11720943_a_at) / RFU RGS16 (11720944_at) / Fold change /veh RGS16 (11720944_at) / RFU, VPS4B / Fold change vs veh, VPS4B / RFU, CREB1 / Fold change vs veh, CREB1 / RFU, DNAJC13 / Fold change vs veh, DNAJC13 / RFU, GNAQ / Fold change vs veh, GNAQ / RFU, CDK5R1 / Fold change vs veh, CDK5R1 / RFU, ZRANB3 / Fold change vs veh, ZRANB3 / RFU, CUL4A / Fold change vs veh, CUL4A / RFU, CCNY / Fold change vs veh, CCNY / RFU, UFL1 / Fold change vs veh, UFL1 / RFU, COG3 / Fold change vs veh, COG3 / RFU, DIAPH2 / Fold change vs veh, DIAPH2 / RFU, SKA2 / Fold change vs veh, SKA2 / RFU, AFF3 / Fold change vs veh, AFF3 / RFU, LMF1 / Fold change vs veh, LMF1 / RFU, IPO11 / Fold change vs veh, IPO11 / RFU, DFFB / Fold change vs veh, DFFB / RFU, FOXP1 / Fold change vs veh, FOXP1 / RFU, CARD8 / Fold change vs veh, CARD8 / RFU, STRN3 / Fold change vs veh, STRN3 / RFU, ADK / Fold change vs veh, ADK / RFU, RASSF2 / Fold change vs veh, RASSF2 / RFU, WIPF1 / Fold change vs veh, WIPF1 / RFU, LARP1B / Fold change vs veh, LARP1B / RFU, RASA1 / Fold change vs veh, RASA1 / RFU, RB1 / Fold change vs veh, RB1 / RFU, PPFIA1 / Fold change vs veh, PPFIA1 / RFU, MAT2A / Fold change vs veh, MAT2A / RFU, CCT5 / Fold change vs veh, CCT5 / RFU, WDR92 / Fold change vs veh, WDR92 / RFU, CUX1 / Fold change vs veh, CUX1 / RFU, TTC7A / Fold change vs veh, TTC7A / RFU, TMEM135 / Fold change vs veh, TMEM135 / RFU, DEPTOR / Fold change vs veh, DEPTOR / RFU, CPM / Fold change vs veh, CPM / RFU, DNAJB6 / Fold change vs veh, DNAJB6 / RFU, CACNA2D3 / Fold change vs veh, CACNA2D3 / RFU, DTX4 / Fold change vs veh, DTX4 / RFU, TFCP2 / Fold change vs veh, TFCP2 / RFU, GMCL1 /// GMCL1P1 / Fold change vs veh, GMCL1 /// GMCL1P1 / RFU, AEBP2 / Fold change vs veh, AEBP2 / RFU, SNHG1 /// SNORD22 /// SNORD25 /// SNORD26 /// SNORD27 /// SNORD28 /// SNORD29 /// SNORD31 / Fold change vs veh, SNHG1 /// SNORD22 /// SNORD25 /// SNORD26 /// SNORD27 /// SNORD28 /// SNORD29 /// SNORD31 / Fold change (Aza/veh), C12orf56 (ProbeSet 11735607_a_at) / Fold change (ACY-1035/veh), C12orf56 (ProbeSet 11735607_a_at) / Fold change (Aza/veh), FGFR1OP (ProbeSet 11751329_s_at) / Fold change (ACY-1035/veh), FGFR1OP (ProbeSet 11751329_s_at) / Fold change (Aza/veh), VPS36 (ProbeSet 11739960_a_at) / Fold change (ACY-1035/veh), VPS36 (ProbeSet 11739960_a_at) / RFU SYPL1 (11715823_x_at) / Fold change /veh SYPL1 (11715823_x_at) / RFU IGFBP7 (11715501_s_at) / Fold change /veh IGFBP7 (11715501_s_at) / RFU REEP3 (11722064_at) / Fold change /veh REEP3 (11722064_at) / RFU IGLL1 (11728026_x_at) / Fold change /veh IGLL1 (11728026_x_at): dose or concentration left out as unconfirmed. The note with it: ProbeSet 11743929_at; LIST B.

In the case of `Nc1ncn([C@@H]2O[C@H](CO)[C@@H](O)[C@H]2O)c(=O)n1` [azacitidine], the “Fold change vs veh, UHRF1BP1L” value amounted to 0.95.

The record behind these values is article PMC5218480 (PLoS ONE, 2017).
